From patent US11696928B2, “Compounds and use thereof in the expansion of stem cells and/or progenitor cells” (UNIVERSITE DE MONTREAL, priority 2017, dated 2023)

Tests used:
[1] = test system: Human CD34+ cord blood (CB) cells; experiment: CD34+ activity assessment (7-day expansion of pre-expanded CD34+ cells, flow cytometry); assay type: cell-based; settings: concentration at which compound/vehicle ratio of CD34+ cell number is >= 1.5; 7 days, with 35 nM UM0128171; Table 1
Method: Human CD34+ cord blood (CB) cells were isolated from fresh units using RosetteSep™ 0034 pre-enrichment cocktail followed by CD34 positive selection using EasySep Kit™ (StemCell Technologies). The cells were then pre-expanded in bulk, by culturing at 37° C. for 6 days in HSC expansion media consisting of StemSpan ACF (StemCell Technologies) supplemented with 100 ng/mL Stem Cell Factor (SCF, Shenandoah), 100 ng/mL FMS-like Tyrosine Kinase 3 Ligand (FLT3L, Shenandoah), 50 ng/mL Thrombopoietin (TPO, Shenandoah), 2 mM GlutaMAX™ (Invitrogen), 10 μg/mL low density lipoproteins (LDL, StemCell Technologies), 10 μg/mL Ciprofloxacin and 35 nM UM0128171. […] Following the pre-expansion, cells were harvested, aliquoted and frozen until use.
For each activity assessment, CD34+ pre-expanded cells (approximately 2000 per well in a 384-well plate) were cultured in HSC expansion media, in the presence of 35 nM UM0128171. Compounds were serially diluted (1/2) in DMSO (10 dilutions per compound) and added to the cells in order to achieve a 1/1000 final dilution. StemRegenin1 (SR1) and/or Compound 1001 were included in all experiments as controls to monitor assay performance. The plate was incubated at 37° C. for 7 days in static conditions (i.e. no shaking and no addition of media). Flow cytometry analysis was performed at the end of the 7-day expansion. Cells were stained with PE-labeled anti-human CD45RA (BD Biosciences) and APC-labeled anti-human CD34 (BD Biosciences) and analyzed using Intellicyt IQue cytometer equipped with ForeCyt software. Gates were drawn around the populations of interest to obtain cell numbers and relative proportions. The EC1.5 value, which is the concentration at which the compound/vehicle ratio is greater or equal to 1.5, was calculated by plotting the CD34+ cell number against concentrations (log-scale) in a 4-PL curve and fitting the curve using IDBS XLfit (set model 251) in Microsoft Excel.

[2] = biological target: T1, AhR (Homo sapiens, UniProt P35869); experiment: Inhibition of AhR-mediated gene transcription (HEK-XRE 11.1 luciferase reporter, MeBIO induction); assay type: cell-based; settings: HEK-XRE 11.1 cells, MeBIO 0.1 nM, luminescence after 24 hours; Table 1
T1 construct: One of the resultant clones was named HEK-XRE 11.1, and used in the reporter gene assays; endogenous in cells; host or cells: HEK-XRE 11.1 (HEK cells stably carrying the AhR-responsive luciferase reporter X4-4.27 and phRL-CMV)
T1 sequence (P35869 11-848): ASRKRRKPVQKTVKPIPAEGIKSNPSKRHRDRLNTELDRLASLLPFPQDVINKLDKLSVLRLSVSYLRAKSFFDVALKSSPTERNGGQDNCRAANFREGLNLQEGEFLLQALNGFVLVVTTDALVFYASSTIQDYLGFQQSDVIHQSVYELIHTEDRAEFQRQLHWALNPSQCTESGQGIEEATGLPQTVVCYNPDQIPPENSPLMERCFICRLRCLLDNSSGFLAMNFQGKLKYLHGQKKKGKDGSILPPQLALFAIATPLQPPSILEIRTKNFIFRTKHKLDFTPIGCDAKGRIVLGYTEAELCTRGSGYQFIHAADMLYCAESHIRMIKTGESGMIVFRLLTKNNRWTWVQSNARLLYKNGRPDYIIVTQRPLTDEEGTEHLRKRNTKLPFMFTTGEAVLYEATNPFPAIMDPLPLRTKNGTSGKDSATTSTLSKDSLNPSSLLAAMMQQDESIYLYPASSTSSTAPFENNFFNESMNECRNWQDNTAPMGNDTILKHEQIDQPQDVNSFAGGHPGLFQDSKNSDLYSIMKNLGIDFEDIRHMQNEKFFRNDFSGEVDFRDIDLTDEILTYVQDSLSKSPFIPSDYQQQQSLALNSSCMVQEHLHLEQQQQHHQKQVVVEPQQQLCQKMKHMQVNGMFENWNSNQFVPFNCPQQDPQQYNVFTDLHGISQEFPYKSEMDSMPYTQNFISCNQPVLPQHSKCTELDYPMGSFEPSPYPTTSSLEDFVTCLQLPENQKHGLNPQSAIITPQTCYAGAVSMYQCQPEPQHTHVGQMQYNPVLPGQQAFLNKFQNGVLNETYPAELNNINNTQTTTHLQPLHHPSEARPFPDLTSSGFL
Method: HEK cells line was transfected with an AhR-responsive firefly luciferase reporter gene X4-4.27 and the stable transfectants generated were again transfected with phRL-CMV (a Renilla luciferase expression vector; Promega) along with pBAsi-hU6 Pur DNA (a plasmid carrying the puromycin-resistant gene; TaKaRa, Shiga, Japan), and maintained in the presence of both hygromycin B and puromycin (2 mg/mL). One of the resultant clones was named HEK-XRE 11.1, and used in the reporter gene assays.
HEK-XRE 11.1 cells were plated in 384-well plates at a density of 25,000 cells in 50 uL volume per well. The induction of ARh pathway was done by addition of MeBIO at 0.1 nM concentration. ARh antagonist compounds were then added to seeded cells in serial dilutions (8 dilutions, 1:[…] down to 5 nM) in duplicate wells. Renilla expression was not used as internal control. On each plate, Compound 1001 and SR1 were added as dose control (8 dilutions, 1:3, 5 mM down to 2.5 nM for SR1 and 2 mM down to 1 nM for compound 1001). Luminescence activity was evaluated after 24 hours culture using Lumi-384-CellTiterGlo-Corning protocol. Dose-response curves were generated using nonlinear regression in Excel.

SMILES | EC1.5 [1] [nM] | IC50 [2] [nM]
CCOC(=O)Cc1ccc(NC(=O)c2sc3ncc(C(F)(F)F)cc3c2N)cc1 [Compound 1032] | 1000 to 5000 | 50 to 500
COc1ccc(NC(=O)c2sc3ncc(C(F)(F)F)cc3c2N)cc1-c1ccccc1 [Compound 1033] | 100 to 1000 | 50 to 500
Nc1c(C(=O)Nc2ccccc2)sc2ccc(C(F)(F)F)cc12 [Compound 1034] | 100 to 1000 | < 50
Nc1c(C(=O)Nc2ccncc2)sc2ccc(C(F)(F)F)cc12 [Compound 1035] | 100 to 1000 | < 50
Nc1c(C(=O)Nc2cccc(Br)c2)sc2ncc(C(F)(F)F)cc12 [Compound 1036] | 100 to 1000 | < 50
N#CCc1ccc(NC(=O)c2sc3ncc(C(F)(F)F)cc3c2N)cc1 [Compound 1038] | >5000 | < 50
Nc1c(C(=O)Nc2cccc3cnccc23)sc2ncc(C(F)(F)F)cc12 [Compound 1039] | >5000 | 50 to 500
Nc1c(C(=O)Nc2cccc3ncccc23)sc2ncc(C(F)(F)F)cc12 [Compound 1040] | >5000 | 50 to 500
Nc1c(C(=O)Nc2ccc3ncccc3c2)sc2ncc(C(F)(F)F)cc12 [Compound 1041] | 1000 to 5000 | 50 to 500
Nc1c(C(=O)Nc2cnc3ccccc3c2)sc2ncc(C(F)(F)F)cc12 [Compound 1042] | 1000 to 5000 | > 500
Nc1c(C(=O)Nc2ccnc3ccccc23)sc2ncc(C(F)(F)F)cc12 [Compound 1043] | >5000 | > 500
CCOC(=O)c1cnc2sc(C(=O)Nc3ccccc3)c(N)c2c1 [Compound 1044] | >5000 | 50 to 500
Nc1c(C(=O)Nc2ccc(Cl)cc2)sc2ncc(C(F)(F)F)cc12 [Compound 1045] | <100 | < 50
COCCc1ccc(NC(=O)c2sc3ncc(C(F)(F)F)cc3c2N)cc1 [Compound 1046] | >5000 | 50 to 500
Cc1ccc(NC(=O)c2sc3ncc(C(F)(F)F)cc3c2N)cc1 [Compound 1047] | 100 to 1000 | < 50
COc1ccc(NC(=O)c2sc3ncc(C(F)(F)F)cc3c2N)cc1 [Compound 1048] | <100 | < 50
Nc1c(C(=O)Nc2ccc(Cl)cc2)sc2cnc(C(F)(F)F)cc12 [Compound 1051] | 1000 to 5000 | 50 to 500
Cc1ccc(NC(=O)c2sc3cnc(C(F)(F)F)cc3c2N)cc1 [Compound 1052] | 1000 to 5000 | 50 to 500
Nc1c(C(=O)Nc2ccc(-c3ccncc3)cc2)sc2ncc(C(F)(F)F)cc12 [Compound 1056] | >5000 | 50 to 500

SMILES | EC1.5 [1] [nM] | IC50 [2] [nM]
Nc1c(C(=O)Nc2cccc(-c3cccnc3)c2)sc2ncc(C(F)(F)F)cc12 [Compound 1057] | 1000 to 5000 | < 50
Nc1c(C(=O)Nc2cccc(-c3ccncc3)c2)sc2ncc(C(F)(F)F)cc12 [Compound 1058] | 100 to 1000 | < 50
Nc1c(C(=O)Nc2cccc(-c3ccccc3)c2)sc2ncc(C(F)(F)F)cc12 [Compound 1059] | 1000 to 5000 | 50 to 500
Nc1c(C(=O)Nc2ccc(C(F)(F)F)cc2)sc2ncc(C(F)(F)F)cc12 [Compound 1061] | <100 | < 50
Cc1cnc2sc(C(=O)Nc3ccc(Br)cc3)c(N)c2c1 [Compound 1062] | <100 | < 50
Cc1cnc2sc(C(=O)Nc3ccncc3)c(N)c2c1 [Compound 1063] | >5000 | 50 to 500
Nc1c(C(=O)Nc2ccc(Br)cc2)sc2ccc(C(F)(F)F)cc12 [Compound 1064] | 100 to 1000 | 50 to 500
Cc1ccc(NC(=O)c2sc3ccc(C(F)(F)F)cc3c2N)cc1 [Compound 1065] | 100 to 1000 | 50 to 500
Nc1c(C(=O)Nc2ccc(Cl)cc2)sc2ccc(C(F)(F)F)cc12 [Compound 1066] | 100 to 1000 | < 50
Nc1c(C(=O)Nc2cccnc2)sc2ccc(C(F)(F)F)cc12 [Compound 1067] | 1000 to 5000 | < 50
Cc1cnc2sc(C(=O)Nc3ccc(Cl)cc3)c(N)c2c1 [Compound 1068] | <100 | < 50
Cc1ccc(NC(=O)c2sc3ncc(C)cc3c2N)cc1 [Compound 1069] | 100 to 1000 | < 50
Cc1ccc(NC(=O)c2sc3ncc(C(F)(F)F)cc3c2N)cn1 [Compound 1070] | >5000 | 50 to 500
COc1ccc(NC(=O)c2sc3ncc(C(F)(F)F)cc3c2N)cn1 [Compound 1071] | 100 to 1000 | < 50
Cc1ccc2sc(C(=O)Nc3ccccc3)c(N)c2n1 [Compound 1072] | >5000 | 50 to 500
Cc1ccc2sc(C(=O)Nc3ccc(Cl)cc3)c(N)c2n1 [Compound 1073] | >5000 | 50 to 500
Nc1c(C(=O)Nc2ccc(F)c(Cl)c2)sc2ncc(C(F)(F)F)cc12 [Compound 1074] | 100 to 1000 | < 50
Nc1c(C(=O)Nc2ccc(F)c(F)c2)sc2ncc(C(F)(F)F)cc12 [Compound 1075] | 100 to 1000 | < 50
